Experimental data as given in PubChem BioAssay (NCI).
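Assay format: 96-well plates, 48-hour exposure. At the TGI there is no net growth.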

tested on: COLO 205 colon; experiment: DTP human tumour cell line panel, 48 h

| SMILES | TGI [µM] |
| --- | --- |
| Nc1nc(N)c2cc(Sc3ccc4nc(N)nc(N)c4c3)ccc2n1 | > 100 |
| N#CC(C#N)N=Cc1ccncc1 | > 100 |
| COc1ccc2c(c1)/C(=C\c1c(C)nc3n1CCS3)C(=O)N2 | 41.9 |
| COC(=O)C1=C(O)C(C(=O)OC)[C@]2(O)[C@H](C(=O)OC)[C@H]1C[C@@H](c1ccc(F)cc1)[C@H]2C(=O)OC (some centres not stated) | 29.6 |
| CCN(CC)c1cc2c3c(c1)CCCN3CCC2 | > 10 |
| CN(C)C=C1C(=O)c2c(Br)sc(Br)c2C1=O | 37.7 |
| CC(=O)O[C@H]1CC[C@H]2[C@@H]3CCC4C(C)=NNC(=O)C4[C@H]3CC[C@]12C (some centres not stated) | > 100 |
| COc1cc2c[n+](C)c3c4cc5c(cc4ccc3c2cc1OC)OCO5 | 4.48 |
| O=c1[nH]c(C23CC4CC(CC(C4)C2)C3)cc2c1c(=O)oc1ccccc12 | 46.9 |
| CCN(CC)C(=C(C(Cl)=C(Cl)Cl)[N+](=O)[O-])N(CC)CC | > 100 |
| O=C1C(=O)c2c(oc(=O)c3ccccc23)-c2ccccc21 | > 25 |
| CCOC(=O)C(C(=O)OCC)=C1NC2(c3ccccc3Nc3ccc(C)cc32)C(C#N)S1 (configuration not stated) | 14.6 |
| CN1CCC2(CC1)SC[C@H]1C(=O)N(c3ccc(Cl)cc3)C(=O)N12 | > 100 |
| CC(C)=CCC[C@@H](C)C1=C(O)C(O)C(C)=C2N=C(c3ccccc3)C(=O)OC21 (some centres not stated) | > 25 |
| Cc1cc([C@H](C#N)c2nc3ccccc3[nH]2)nc(Cl)n1 | > 100 |
| CC(C)(C)[Si](C)(C)O[C@@H](C(=O)OC1C=CCCC1)[C@@H](NC(=O)c1ccccc1)c1ccccc1 (some centres not stated) | 76.8 |
| Cc1oc2c(c1C)S(=O)(=O)C(C#N)=C(c1ccccc1)N2 | > 100 |
| O=C1c2ccccc2C(O)(C(=O)O)C1(O)CC=C(Cl)Cl (configuration not stated) | > 125 |
| CC(=O)O[C@@H]1CC[C@@]2(C)C(CC[C@H]3[C@@H]4CC[C@H]([C@H](C)CCc5nc6ccc(C)cc6[nH]5)[C@@]4(C)CC[C@@H]32)C1 (some centres not stated) | > 100 |
| COc1cccc(OC/C(N=Cc2cccnc2)=N/NC(=O)c2ccncc2)c1 | > 100 |
| C/C1=C/C(C)CC(C)OC(=O)C(C)NC(=O)C(Cc2ccc(O)c(I)c2)N(C)C(=O)CNC(=O)C(C)C1 (configuration not stated) | > 100 |
| Cc1ccc(-n2cnc3c(N)nc(N)nc32)cc1 | > 100 |
| CC12CCC3[C@@H](CC3(C)C)C(O)(CCC1=O)C2 (some centres not stated) | > 100 |
| CO[C@H]1c2cccc3cccc(c23)[C@@H]1n1[nH]c(=O)n(C(C)(C)C)c1=O | > 100 |
| CCCCCCCCCCCCCCCCCCNc1ccn(C2OC(COP(=O)(O)OC3CC(n4cc(F)c(=O)[nH]c4=O)OC3COP(=O)(O)OCC3OC(n4ccc(N)nc4=O)C(O)C3O)C(O)C2O)c(=O)n1 (configuration not stated) | > 48.7 |

tested on: TK-10 renal; experiment: DTP human tumour cell line panel, 48 h

| SMILES | TGI [µM] |
| --- | --- |
| Nc1nc(N)c2cc(Sc3ccc4nc(N)nc(N)c4c3)ccc2n1 | > 100 |
| N#CC(C#N)N=Cc1ccncc1 | > 100 |
| COc1ccc2c(c1)/C(=C\c1c(C)nc3n1CCS3)C(=O)N2 | > 100 |
| COC(=O)C1=C(O)C(C(=O)OC)[C@]2(O)[C@H](C(=O)OC)[C@H]1C[C@@H](c1ccc(F)cc1)[C@H]2C(=O)OC (some centres not stated) | 57.5 |
| CCN(CC)c1cc2c3c(c1)CCCN3CCC2 | > 10 |
| CN(C)C=C1C(=O)c2c(Br)sc(Br)c2C1=O | 99.7 |
| CC(=O)O[C@H]1CC[C@H]2[C@@H]3CCC4C(C)=NNC(=O)C4[C@H]3CC[C@]12C (some centres not stated) | > 100 |
| COc1cc2c[n+](C)c3c4cc5c(cc4ccc3c2cc1OC)OCO5 | > 93.1 |
| O=c1[nH]c(C23CC4CC(CC(C4)C2)C3)cc2c1c(=O)oc1ccccc12 | 12.2 |
| CCN(CC)C(=C(C(Cl)=C(Cl)Cl)[N+](=O)[O-])N(CC)CC | > 100 |
| O=C1C(=O)c2c(oc(=O)c3ccccc23)-c2ccccc21 | > 25 |
| CCOC(=O)C(C(=O)OCC)=C1NC2(c3ccccc3Nc3ccc(C)cc32)C(C#N)S1 (configuration not stated) | 31.1 |
| CN1CCC2(CC1)SC[C@H]1C(=O)N(c3ccc(Cl)cc3)C(=O)N12 | > 100 |
| CC(C)=CCC[C@@H](C)C1=C(O)C(O)C(C)=C2N=C(c3ccccc3)C(=O)OC21 (some centres not stated) | > 25 |
| Cc1cc([C@H](C#N)c2nc3ccccc3[nH]2)nc(Cl)n1 | > 100 |
| CC(C)(C)[Si](C)(C)O[C@@H](C(=O)OC1C=CCCC1)[C@@H](NC(=O)c1ccccc1)c1ccccc1 (some centres not stated) | > 100 |
| Cc1oc2c(c1C)S(=O)(=O)C(C#N)=C(c1ccccc1)N2 | > 100 |
| CC(=O)O[C@@H]1CC[C@@]2(C)C(CC[C@H]3[C@@H]4CC[C@H]([C@H](C)CCc5nc6ccc(C)cc6[nH]5)[C@@]4(C)CC[C@@H]32)C1 (some centres not stated) | > 100 |
| COc1cccc(OC/C(N=Cc2cccnc2)=N/NC(=O)c2ccncc2)c1 | > 100 |
| Cc1ccc(-n2cnc3c(N)nc(N)nc32)cc1 | > 100 |
| CC12CCC3[C@@H](CC3(C)C)C(O)(CCC1=O)C2 (some centres not stated) | > 100 |
| CO[C@H]1c2cccc3cccc(c23)[C@@H]1n1[nH]c(=O)n(C(C)(C)C)c1=O | > 100 |
| CCCCCCCCCCCCCCCCCCNc1ccn(C2OC(COP(=O)(O)OC3CC(n4cc(F)c(=O)[nH]c4=O)OC3COP(=O)(O)OCC3OC(n4ccc(N)nc4=O)C(O)C3O)C(O)C2O)c(=O)n1 (configuration not stated) | > 100 |

tested on: EKVX NSCLC; experiment: DTP human tumour cell line panel, 48 h

| SMILES | TGI [µM] |
| --- | --- |
| Nc1nc(N)c2cc(Sc3ccc4nc(N)nc(N)c4c3)ccc2n1 | > 100 |
| N#CC(C#N)N=Cc1ccncc1 | > 100 |
| COc1ccc2c(c1)/C(=C\c1c(C)nc3n1CCS3)C(=O)N2 | > 100 |
| COC(=O)C1=C(O)C(C(=O)OC)[C@]2(O)[C@H](C(=O)OC)[C@H]1C[C@@H](c1ccc(F)cc1)[C@H]2C(=O)OC (some centres not stated) | 41.3 |
| CCN(CC)c1cc2c3c(c1)CCCN3CCC2 | > 10 |
| CN(C)C=C1C(=O)c2c(Br)sc(Br)c2C1=O | 40.5 |
| CC(=O)O[C@H]1CC[C@H]2[C@@H]3CCC4C(C)=NNC(=O)C4[C@H]3CC[C@]12C (some centres not stated) | > 100 |
| COc1cc2c[n+](C)c3c4cc5c(cc4ccc3c2cc1OC)OCO5 | 18.7 |
| O=c1[nH]c(C23CC4CC(CC(C4)C2)C3)cc2c1c(=O)oc1ccccc12 | 3.99 |
